PMC10176470, “Engaging a Non-catalytic Cysteine Residue Drives Potent and Selective Inhibition of Caspase-6” (Journal of the American Chemical Society, 2023)
Read-outs that look alike come from different tables or passages of the source.

Legend:
Format in all cases: cell-based
[1] = target: proteins of HEK293T cells transiently overexpressing caspase-6 (Homo sapiens, UniProt Q13085)
[2] = target: proteins of HEK293T cells transiently overexpressing caspase-6 (Homo sapiens, UniProt Q9BRX8); settings: Probe; protein FAM213A Q9BRX8
proteins of HEK293T cells transiently overexpressing caspase-6 (Homo sapiens, UniProt Q9BRX8), sequence (Q9BRX8 whole entry): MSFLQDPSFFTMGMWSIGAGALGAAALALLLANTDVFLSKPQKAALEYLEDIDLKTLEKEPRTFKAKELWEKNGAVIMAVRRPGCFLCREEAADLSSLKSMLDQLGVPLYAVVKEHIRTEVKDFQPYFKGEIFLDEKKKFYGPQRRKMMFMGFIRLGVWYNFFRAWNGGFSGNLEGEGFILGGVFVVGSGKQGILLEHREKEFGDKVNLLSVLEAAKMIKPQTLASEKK

[3] = target: proteins of HEK293T cells transiently overexpressing caspase-6 (Homo sapiens, UniProt P53985); settings: exp_ref Probe; protein SLC16A1 (P53985); analysis C6
proteins of HEK293T cells transiently overexpressing caspase-6 (Homo sapiens, UniProt P53985), sequence (P53985 whole entry): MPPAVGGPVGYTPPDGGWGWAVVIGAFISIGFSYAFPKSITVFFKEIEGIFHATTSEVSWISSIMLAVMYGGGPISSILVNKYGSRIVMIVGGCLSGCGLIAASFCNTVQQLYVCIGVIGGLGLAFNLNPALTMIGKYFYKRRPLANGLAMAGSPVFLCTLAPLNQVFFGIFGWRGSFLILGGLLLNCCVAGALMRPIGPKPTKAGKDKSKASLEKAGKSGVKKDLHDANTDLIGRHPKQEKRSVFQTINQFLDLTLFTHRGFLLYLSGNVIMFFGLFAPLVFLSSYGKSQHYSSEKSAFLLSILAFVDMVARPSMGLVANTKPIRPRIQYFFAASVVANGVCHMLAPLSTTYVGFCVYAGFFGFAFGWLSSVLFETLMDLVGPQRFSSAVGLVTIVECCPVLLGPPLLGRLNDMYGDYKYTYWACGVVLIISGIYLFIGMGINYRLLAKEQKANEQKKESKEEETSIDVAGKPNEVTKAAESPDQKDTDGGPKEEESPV

[4] = target: T1, proteins of HEK293T cells transiently overexpressing caspase-6 (Homo sapiens, UniProt Q13162)
T1 sequence (Q13162 38-271): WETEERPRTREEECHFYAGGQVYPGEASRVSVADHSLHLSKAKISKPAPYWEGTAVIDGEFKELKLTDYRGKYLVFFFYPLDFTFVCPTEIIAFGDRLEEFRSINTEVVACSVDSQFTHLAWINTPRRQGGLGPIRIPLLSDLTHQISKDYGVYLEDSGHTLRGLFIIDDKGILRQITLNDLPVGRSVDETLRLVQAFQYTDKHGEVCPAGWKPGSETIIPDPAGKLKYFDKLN

[5] = target: T2, proteins of HEK293T cells transiently overexpressing caspase-6 (Homo sapiens, UniProt Q96F45); settings: protein ZNF503 (Q96F45), analysis C6
T2 sequence (Q96F45 1-646): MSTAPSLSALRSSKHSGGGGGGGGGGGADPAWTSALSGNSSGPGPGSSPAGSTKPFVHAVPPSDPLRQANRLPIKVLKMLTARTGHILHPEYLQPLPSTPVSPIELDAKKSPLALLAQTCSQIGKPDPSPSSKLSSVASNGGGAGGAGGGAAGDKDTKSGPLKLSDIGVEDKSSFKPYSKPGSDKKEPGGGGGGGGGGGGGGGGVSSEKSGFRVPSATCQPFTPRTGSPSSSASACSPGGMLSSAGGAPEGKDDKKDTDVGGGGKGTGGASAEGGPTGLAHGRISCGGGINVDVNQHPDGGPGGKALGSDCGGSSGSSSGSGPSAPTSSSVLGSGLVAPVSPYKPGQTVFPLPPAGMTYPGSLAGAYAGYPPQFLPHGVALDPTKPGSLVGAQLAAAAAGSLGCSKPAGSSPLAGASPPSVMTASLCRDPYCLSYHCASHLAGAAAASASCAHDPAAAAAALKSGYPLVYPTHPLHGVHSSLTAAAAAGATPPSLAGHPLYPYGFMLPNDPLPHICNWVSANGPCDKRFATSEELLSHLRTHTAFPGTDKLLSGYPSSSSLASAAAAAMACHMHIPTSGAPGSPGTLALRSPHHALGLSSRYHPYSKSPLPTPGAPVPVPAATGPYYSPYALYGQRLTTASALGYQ

[6] = target: T3, proteins of HEK293T cells transiently overexpressing caspase-6 (Homo sapiens, UniProt P55212); settings: for enrich.exp.med: exp_ref Probe
T3 sequence (P55212 24-293): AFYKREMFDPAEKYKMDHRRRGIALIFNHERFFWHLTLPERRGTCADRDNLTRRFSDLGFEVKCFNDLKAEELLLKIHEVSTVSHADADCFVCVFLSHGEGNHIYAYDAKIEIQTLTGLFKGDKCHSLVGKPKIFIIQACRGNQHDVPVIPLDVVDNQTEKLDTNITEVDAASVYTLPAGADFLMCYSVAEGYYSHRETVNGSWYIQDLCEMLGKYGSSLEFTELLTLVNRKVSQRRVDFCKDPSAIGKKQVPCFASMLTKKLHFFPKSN

[7] = target: T4, proteins of HEK293T cells transiently overexpressing caspase-6 (Homo sapiens, UniProt P27824); settings: protein CANX (P27824)
T4 sequence (P27824 21-592): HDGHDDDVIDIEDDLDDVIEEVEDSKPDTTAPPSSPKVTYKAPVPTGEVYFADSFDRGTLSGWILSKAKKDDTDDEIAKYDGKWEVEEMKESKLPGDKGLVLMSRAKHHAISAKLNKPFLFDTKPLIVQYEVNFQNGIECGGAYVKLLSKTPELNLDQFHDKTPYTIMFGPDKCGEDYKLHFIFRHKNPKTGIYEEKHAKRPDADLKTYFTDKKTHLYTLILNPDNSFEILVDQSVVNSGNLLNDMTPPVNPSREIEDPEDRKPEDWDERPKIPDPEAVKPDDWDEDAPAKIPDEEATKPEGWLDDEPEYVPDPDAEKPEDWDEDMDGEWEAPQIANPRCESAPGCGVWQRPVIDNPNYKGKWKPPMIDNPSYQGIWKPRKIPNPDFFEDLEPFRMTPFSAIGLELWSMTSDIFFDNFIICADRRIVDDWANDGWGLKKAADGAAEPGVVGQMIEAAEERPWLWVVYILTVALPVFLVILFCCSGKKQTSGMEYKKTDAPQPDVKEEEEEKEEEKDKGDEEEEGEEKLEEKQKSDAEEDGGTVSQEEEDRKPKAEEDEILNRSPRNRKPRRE

[8] = target: proteins of HEK293T cells transiently overexpressing caspase-6 (Homo sapiens, UniProt Q15084); settings: exp_ref Probe; protein PDIA6 (Q15084); analysis C6
proteins of HEK293T cells transiently overexpressing caspase-6 (Homo sapiens, UniProt Q15084), sequence (Q15084 20-440): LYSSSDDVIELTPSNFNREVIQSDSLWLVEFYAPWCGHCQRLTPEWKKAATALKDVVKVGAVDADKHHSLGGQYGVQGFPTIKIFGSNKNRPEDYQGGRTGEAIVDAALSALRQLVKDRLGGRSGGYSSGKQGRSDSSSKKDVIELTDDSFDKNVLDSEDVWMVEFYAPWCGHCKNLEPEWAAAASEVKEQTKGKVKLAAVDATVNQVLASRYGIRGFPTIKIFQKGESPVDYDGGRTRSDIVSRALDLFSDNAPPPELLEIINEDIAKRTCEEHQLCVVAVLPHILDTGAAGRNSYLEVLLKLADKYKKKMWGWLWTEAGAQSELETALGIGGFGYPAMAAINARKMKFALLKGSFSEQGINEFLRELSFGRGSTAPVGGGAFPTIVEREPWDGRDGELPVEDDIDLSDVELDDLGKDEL

[9] = target: proteins of HEK293T cells transiently overexpressing caspase-6 (Homo sapiens, UniProt O14880); settings: exp_ref Probe; protein MGST3 (O14880); analysis C6
proteins of HEK293T cells transiently overexpressing caspase-6 (Homo sapiens, UniProt O14880), sequence (O14880 whole entry): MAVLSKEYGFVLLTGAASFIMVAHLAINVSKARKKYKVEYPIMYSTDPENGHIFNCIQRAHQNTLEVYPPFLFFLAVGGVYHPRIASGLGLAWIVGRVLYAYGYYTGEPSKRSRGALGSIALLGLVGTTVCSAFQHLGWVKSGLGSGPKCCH

[10] = target: proteins of HEK293T cells transiently overexpressing caspase-6 (Homo sapiens, UniProt P33991); settings: exp_ref Probe; protein MCM4 (P33991); analysis C6
proteins of HEK293T cells transiently overexpressing caspase-6 (Homo sapiens, UniProt P33991), sequence (P33991 whole entry): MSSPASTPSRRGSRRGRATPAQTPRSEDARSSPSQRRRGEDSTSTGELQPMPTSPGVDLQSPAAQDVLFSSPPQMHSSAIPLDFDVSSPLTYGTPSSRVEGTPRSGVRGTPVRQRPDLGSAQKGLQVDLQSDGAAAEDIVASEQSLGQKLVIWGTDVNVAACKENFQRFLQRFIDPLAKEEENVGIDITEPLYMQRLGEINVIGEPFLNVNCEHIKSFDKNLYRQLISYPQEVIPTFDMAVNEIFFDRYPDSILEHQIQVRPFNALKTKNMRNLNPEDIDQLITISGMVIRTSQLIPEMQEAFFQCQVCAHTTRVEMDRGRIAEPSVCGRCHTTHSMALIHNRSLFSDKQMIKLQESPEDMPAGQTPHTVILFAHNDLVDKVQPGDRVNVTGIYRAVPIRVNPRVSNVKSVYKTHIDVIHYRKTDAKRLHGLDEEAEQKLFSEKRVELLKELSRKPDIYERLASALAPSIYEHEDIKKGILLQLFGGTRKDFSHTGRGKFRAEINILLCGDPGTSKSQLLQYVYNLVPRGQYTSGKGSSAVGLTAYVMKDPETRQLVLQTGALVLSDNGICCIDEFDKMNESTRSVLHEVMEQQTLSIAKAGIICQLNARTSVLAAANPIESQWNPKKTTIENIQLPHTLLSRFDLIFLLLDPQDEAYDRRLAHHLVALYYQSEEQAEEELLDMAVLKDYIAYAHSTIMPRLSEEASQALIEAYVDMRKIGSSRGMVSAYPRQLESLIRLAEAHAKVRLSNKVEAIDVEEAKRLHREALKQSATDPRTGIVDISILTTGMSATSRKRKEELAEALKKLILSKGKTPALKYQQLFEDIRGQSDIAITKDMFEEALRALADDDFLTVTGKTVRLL

[11] = protein CASP6SMALL (P55212), Expt Probe, analysis C6

**Q.** Which enrich.exp.med ([1]; Probe, protein ACACA Q13085) does the source give for `C#CCOc1ccc([C@@H]2C[C@@H](C(=O)Nc3ccc(OC(F)(F)F)cc3)CN(S(=O)(=O)C=C)C2)cc1` (relative stereo) [13-t] here?
**A.** -2.123

**Q.** And the enrich.exp.med.lin ([1]; protein ACACA (Q13085))?
**A.** 0.2296

**Q.** And the enrich.exp.med.log2 ([1]; protein ACACA (Q13085))?
**A.** -2.123

**Q.** And the enrich.exp.med [2]?
**A.** -8.503

**Q.** And the enrich.exp.med [3]?
**A.** -0.3557

**Q.** And the enrich.exp.med ([4]; Probe, protein PRDX4 Q13162)?
**A.** -1.846

**Q.** And the enrich.exp.med.lin ([4]; protein PRDX4 (Q13162))?
**A.** 0.2781

**Q.** What about the enrich.exp.med.log2 ([4]; protein PRDX4 (Q13162)) of the same compound?
**A.** -1.846

**Q.** What about the enrich.exp.med.lin ([5]; Expt Probe) of the same compound?
**A.** 59.486

**Q.** And the enrich.exp.med.log2 ([5]; Expt Probe)?
**A.** 5.894

**Q.** What about the enrich.exp.med ([5]; exp_ref Probe) of the same compound?
**A.** 5.894

**Q.** What about the enrich.exp.med ([6]; protein CASP6LARGE (P55212), analysis C6) of the same compound?
**A.** 0.6468

**Q.** What about the enrich.exp.med.lin ([6]; protein CASP6LARGE (P55212)) of the same compound?
**A.** 1.566

**Q.** What about the enrich.exp.med.log2 ([6]; protein CASP6LARGE (P55212)) of the same compound?
**A.** 0.6468

**Q.** What about the enrich.exp.med.lin ([6]; protein CASP6SMALL (P55212)) of the same compound?
**A.** 9.435

**Q.** And the enrich.exp.med.log2 ([6]; protein CASP6SMALL (P55212))?
**A.** 3.238

**Q.** What about the enrich.exp.med.lin [6, 11] of the same compound?
**A.** 9.435

**Q.** And the enrich.exp.med.log2 [6, 11]?
**A.** 3.238

**Q.** What about the enrich.exp.med ([6]; protein CASP6SMALL (P55212), analysis C6) of the same compound?
**A.** 3.238

**Q.** What about the enrich.exp.med ([7]; exp_ref Probe, analysis C6) of the same compound?
**A.** 0.4691

**Q.** What about the enrich.exp.med.lin [7] of the same compound?
**A.** 1.384

**Q.** And the enrich.exp.med.log2 [7]?
**A.** 0.4691

**Q.** And the enrich.exp.med [8]?
**A.** 0.9602

**Q.** And the enrich.exp.med [9]?
**A.** 1.143

**Q.** What about the enrich.exp.med [10] of the same compound?
**A.** 1.006
